The text below walks through data of PMC3319558, “Functional Correlates of Positional and Gender-Specific Renal Asymmetry in Drosophila” (PLoS ONE, 2012).

For one experiment, the system named is male Malpighian tubules. The settings on record: 3 h.
A further experiment has as its system female tubules. The experiment can be described thus: Tubule fluid secretion assay. More on the design: species or system Drosophila melanogaster. The settings on record: sNPF 10^−7 M added at 30 min, average rates before vs after addition. Here is the method:
(§1) Classical fluid secretion assays were performed as previously described by Dow et al.. Briefly, basal fluid secretion rates of the dissected live tubules were established for 30 min after which the required concentrations of peptides were added and secretion was measured for a further 70 min. The rates of secretion (in nl/min) were represented as the mean (±SEM) of approximately 30–35 tubules coming from 3 independent biological replicates.
(§2) sNPF (AQRSPSLRLRF-NH2) and MIP (AWQSLQSSW-NH2) peptides were synthesised by Biomatik, USA with a purity of greater than 98%. NPF ([…]-NH2) peptide was a kind gift from Professor Ian Orchard (University of Toronto Mississauga). According to the peptide profiles generated by peptide profile calculator (Gene Script, UK), they were dissolved first in water to produce a stock solution of 10 mM and subsequently diluted in the Schneider’s medium to get required final concentrations.

The next experiment deals with male tubules. The experiment can be described thus: Tubule fluid secretion assay. Set-up: species or system Drosophila melanogaster. The note with it: sNPF 10^−7 M added at 30 min, average rates before vs after addition, *** Student's t-test, two tailed, P<0.05, N = 10 tubules (typical trace). Here is the method: as §1, §2
For the next experiment, the system named is Drosophila SPR. The settings on record: more sensitive to MIP than to SP itself; ref [59]; cited from earlier work. An excerpt:
(§3) Intriguingly, two well-known receptors (for sex peptide and neuropeptide F) are prominently male-enriched (Supporting information S1). Their spatial expression patterns are presented along with their peptide ligands in Supporting information S1. Sex peptide receptor (SPR) is 6.6x male-enriched.

In another experiment the test system is female. The settings on record: transferred with the sperm to the female; ref [58]; cited from earlier work.
From the text: as §3

Another experiment concerns right and left tubules. The note with it: right v. left tubules; chloride conductance under control of leucokinin through intracellular calcium; ref [48], [49]; cited from earlier work. An excerpt:
Bestrophin 2 encodes (of four Drosophila bestrophins) the most closely related to human bestrophin 1, a calcium- and volume-activated chloride channel of retinal pigmented epithelial cells, which is mutated in Best’s macular dystrophy, [44]. However, Bestrophins play wider roles: they are implicated in epithelial-to-mesenchymal transitions in human kidney, and in olfactory transduction. In Drosophila, Best1 also mediates a calcium and volume activated chloride current. FlyAtlas reports that, although expressed in eye, Best2 is abundant in epithelia; in adult tubul ...
On the technique in general: Calcium flux is commonly read through the fluorescence of an indicator in the cells.

Entries after “also recorded” stand apart in the source; their conditions may differ. Ends that are not written are not given here. Peptide text beside a SMILES is read from it.

Experimental for male Malpighian tubules: Cytosolic [Ca^2+]cyto or peroxisomal [Ca^2+]perox calcium was measured in tubules expressing transgenic aequorin according to published protocols [88], [89]. Briefly, the tubules were dissected, incubated at room temperature with 2.5 µM coelenterazine to reconstitute aequorin for 3 h. Calcium-dependent aequorin luminescence was measured in 10 biological replicates each containing 20-pairs of tubules. At the end of each experiment, total aequorin was released using 300 µl of lysis buffer (1% (v/v) Triton X-100, 100 mM CaCl2) in order to calculate the total luminescence; and the data were back-integrated using a program written in Perl, based on the method described by Button and Eidsath [90]. Data are presented as the mean (±SEM) and statistical significance was calculated using unpaired t-test.

By EC50 is commonly meant the concentration at which the effect is half-maximal. Lower therefore signals higher potency in that assay. Take `CSCC[C@H](NC(=O)[C@@H](NC(=O)[C@H](CC(N)=O)NC(=O)[C@@H](NC(=O)[C@H](CC(=O)O)NC(=O)[C@H](CC(N)=O)NC(=O)[C@H](CCCCN)NC(=O)[C@H](CCCNC(=N)N)NC(=O)[C@@H]1CCCN1C(=O)[C@@H]1CCCN1C(=O)[C@H](CCCNC(=N)N)NC(=O)[C@H](CO)NC(=O)[C@H](CC(N)=O)NC(=O)[C@@H](N)CO)C(C)C)[C@@H](C)O)C(=O)N[C@@H](C)C(=O)N[C@@H](CC(=O)O)C(=O)N[C@@H](C)C(=O)N[C@@H](Cc1ccc(O)cc1)C(=O)N[C@@H](CCCCN)C(=O)N[C@@H](Cc1ccccc1)C(=O)N[C@@H](CC(C)C)C(=O)N[C@@H](CCC(N)=O)C(=O)N[C@@H](CC(=O)O)C(=O)N[C@@H](CC(C)C)C(=O)N[C@@H](CC(=O)O)C(=O)N[C@H](C(=O)N[C@@H](Cc1ccc(O)cc1)C(=O)N[C@@H](Cc1ccc(O)cc1)C(=O)NCC(=O)N[C@@H](CC(=O)O)C(=O)N[C@@H](CCCNC(=N)N)C(=O)N[C@@H](C)C(=O)N[C@@H](CCCNC(=N)N)C(=O)N[C@H](C(=O)N[C@@H](CCCNC(=N)N)C(=O)N[C@@H](Cc1ccccc1)C(N)=O)C(C)C)[C@@H](C)O` [NPF, neuropeptide F] (H-SNSRPPRKNDVNTMADAYKFLQDLDTYYGDRARVRF-NH2): in the experiment with male Malpighian tubules, a half-maximal response (EC50) required 6 nM.
For “AQRSPSLRLRF-NH2 [sNPF, short neuropeptide F, distantly related peptide, the so called short neuropeptide F; synthesised by Biomatik]”, the Resting fluid secretion result in the experiment on female tubules is “not female; also recorded: only of male tubules”; in the experiment with male tubules, “inhibits fluid secretion in male; also recorded: inhibits resting fluid secretion”.
As to “AWQSLQSSW-NH2 [allatostatin-B, the Drosophila MIP, allatostatin-B]”, in the experiment with Drosophila SPR, the “Sensitivity of Drosophila SPR relative to SP” value was 10 x.
With “Sex peptide: transferred with the sperm to the female (WEWPWNRKPTKFPIPSPNPRDKWCRLNLGPAWGGRC; ends and bridges not checked; cysteine pairing not given here; UniProt P05623 20-55, looked up)”, in the experiment on female, the “Change in female physiology and behaviour” value is recorded as “a reduction in receptivity to subsequent matings”.
As to “leucokinin: diuretic neuropeptide leucokinin, which acts through intracellular calcium (NSVVLGKKQRFHSWG; ends and bridges not checked; UniProt P81829 133-147, looked up)”, the “Action on right and left tubules” value in the experiment on right and left tubules is “acts equally on both right and left tubules”.
